According to the NIST ThermoML archive (doi:10.1016/j.jct.2014.02.005):
Numbers after ± are expanded uncertainties.

Conditions: 101.33 kPa, Liquid, Vibrating tube method

Row | mass density (313.2 K) [kg/m3] | Structure (SMILES) | mass density (288.2 K) [kg/m3] | mass density (298.2 K) [kg/m3]
1 | 992.13 ± 1 | O [water] | – | –
2 | 1026.72 ± 1 | CC(=O)O [acetic acid] | 1055.01 ± 1 | 1043.67 ± 1

Row | Structure (SMILES) | mass density (313.2 K) [kg/m3] | mass density (288.2 K) [kg/m3] | mass density (298.2 K) [kg/m3]
3 | Cc1ccccc1 [toluene] | 848.23 ± 1 | 871.92 ± 1 | 862.49 ± 1
